Experimental data reported in ChEMBL document CHEMBL1151600, “6-Bromo-3-nitroflavone, a new high affinity benzodiazepine receptor agonist recognizes two populations of cerebral cortical binding sites” (Bioorg Med Chem Lett, 1997).
The source made the active and inactive calls. The calls are words filed in the database; no cut-off is given here.

Tests used:
Mus musculus [1] = test: Anxiolytic activity in mice at 100 ug/kg; assay type: functional
[2] = target: GABA-A receptor; anion channel; test: Inhibition of [3H]flunitrazepam [3H]FNZ) binding to GABA-A Benzodiazepine receptor of synaptosomal membranes from rat cerebellum; assay type: tissue-based
[3] = target: GABA-A receptor; anion channel; test: Inhibition of [3H]flunitrazepam [3H]FNZ) binding to GABA-A Benzodiazepine receptor of synaptosomal membranes from rat cerebral cortex; assay type: tissue-based
[4] = target: GABA-A receptor; anion channel; test: Inhibition of [3H]flunitrazepam [3H]FNZ) binding to GABA-A Benzodiazepine receptor of synaptosomal membranes from rat hippocampus
[5] = target: GABA-A receptor; anion channel; test: Inhibition of [3H]flunitrazepam [3H]FNZ) binding to GABA-A Benzodiazepine receptor of synaptosomal membranes from rat spinal cord; assay type: tissue-based
[6] = target: GABA-A receptor; anion channel; test: Inhibition of [3H]flunitrazepam [3H]FNZ) binding to GABA-A Benzodiazepine receptor of synaptosomal membranes from rat striatum
[7] = target: GABA-A receptor; anion channel; test: Inhibition of [3H]zolpidem binding to GABA-A Benzodiazepine receptor of synaptosomal membranes from rat cerebellum; assay type: tissue-based
[8] = target: GABA-A receptor; anion channel; test: Inhibition of [3H]zolpidem binding to GABA-A Benzodiazepine receptor of synaptosomal membranes from rat cerebral cortex; assay type: tissue-based
[9] = target: GABA-A receptor; anion channel (Rattus norvegicus) (UniProt O09028+P15431+P18506+P18508+P19969+P20236+P23574+P23576+P28471+P28473+P30191+P62813+P63079+P63138+Q91ZM7+Q9ES14); test: Inhibition of [3H]flunitrazepam [3H]FNZ) binding to GABA-A benzodiazepine receptor of cortical membranes +/- 100 uM GABA (Partial agonist)
Mus musculus [10] = test: Anxiolytic activity in mice at 0.01 to 0.3 mg/kg intraperitoneal administration; assay type: functional, organism-based

Molecule `CN1C(=O)CN=C(c2ccccc2)c2cc(Cl)ccc21` [DIAZEPAM] has an Anxiolytic activity (Mus musculus [1]) of 35.
For `O=c1cc(-c2cccc([N+](=O)[O-])c2)oc2ccc(Br)cc12`, the Ki [2] was 3.6 nM, the Ki [3] was 1.2 nM and the Ki [4] was 9.6 nM. For the same molecule, the Ki [5] was 12.7 nM, the Ki [6] was 9.8 nM and the Ki [7] was 3 nM. For the same molecule, the Ki [8] was 3.8 nM, the GABA shift [9] was 1.38 and the Anxiolytic affect (Mus musculus [10]) was “Active”.
Molecule `O=c1cc(-c2ccc([N+](=O)[O-])cc2)oc2ccc(Br)cc12` has a Ki [3] of 220 nM.
